# Several values for one entry are separate records, joined by “and”; a condition that tells them apart may be missing. Equal values may be shown once. Entries after “also recorded” stand apart in the source; their conditions may differ. Activity calls are given as the source filed them.
# Key:
# [1] = NIH-3T3 fibroblast cytotoxicity, dose response, cytotoxicity control, cell-based, fluorescence, Alamar Blue, secondary assay (AID 2327); type: functional;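 also: NIH-3T3 mouse fibroblasts cultured with fluconazole at 8 µg/mL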
# [2] = insulin promoter down-regulators in MIN6 cells, imaging, high-content screening, mouse beta cells (AID 1628); type: functional
# [3] = cytotoxicity in MIN6 insulinoma cells, dose response, cytotoxicity control, cell-based, mouse insulinoma (AID 2122); type: functional;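 also: confirmatory high-throughput counterscreen run to flag cytotoxic compounds; mouse MIN-6 beta cells carrying an insulin promoter eGFP reporter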
# [4] = C. albicans growth with fluconazole, confirmation, fluorescence, retest (AID 2467); type: functional, cell-based
# [5] = system: INS1; assay: beta cell apoptosis inhibitors, cytokine rescue, dose response, luminescence, retest (AID 449756); type: functional, cell-based; settings: Rattus norvegicus, INS1;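 also: cell death triggered by IL-1 beta plus TNF-alpha plus IFN-gamma mixture; protective hits raise ATP signal compared with cytokine alone wells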
# [6] = target: Cytochrome P450 3A4 (Homo sapiens, UniProt P08684);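 also: CYP3A4 tested as one member of a cytochrome P450 panel screen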
# [7] = target: T1, Short transient receptor potential channel 4 (Mus musculus, UniProt Q9QUQ5); assay: mouse TRPC4 channel inhibitors, dose response, cell-based, HEK293 TRPC4/mu-opioid, Fluo-4 calcium (AID 434942); type: functional;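 also: potency of inhibitors blocking the TRPC4 calcium response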
# T1 sequence (Q9QUQ5 whole entry): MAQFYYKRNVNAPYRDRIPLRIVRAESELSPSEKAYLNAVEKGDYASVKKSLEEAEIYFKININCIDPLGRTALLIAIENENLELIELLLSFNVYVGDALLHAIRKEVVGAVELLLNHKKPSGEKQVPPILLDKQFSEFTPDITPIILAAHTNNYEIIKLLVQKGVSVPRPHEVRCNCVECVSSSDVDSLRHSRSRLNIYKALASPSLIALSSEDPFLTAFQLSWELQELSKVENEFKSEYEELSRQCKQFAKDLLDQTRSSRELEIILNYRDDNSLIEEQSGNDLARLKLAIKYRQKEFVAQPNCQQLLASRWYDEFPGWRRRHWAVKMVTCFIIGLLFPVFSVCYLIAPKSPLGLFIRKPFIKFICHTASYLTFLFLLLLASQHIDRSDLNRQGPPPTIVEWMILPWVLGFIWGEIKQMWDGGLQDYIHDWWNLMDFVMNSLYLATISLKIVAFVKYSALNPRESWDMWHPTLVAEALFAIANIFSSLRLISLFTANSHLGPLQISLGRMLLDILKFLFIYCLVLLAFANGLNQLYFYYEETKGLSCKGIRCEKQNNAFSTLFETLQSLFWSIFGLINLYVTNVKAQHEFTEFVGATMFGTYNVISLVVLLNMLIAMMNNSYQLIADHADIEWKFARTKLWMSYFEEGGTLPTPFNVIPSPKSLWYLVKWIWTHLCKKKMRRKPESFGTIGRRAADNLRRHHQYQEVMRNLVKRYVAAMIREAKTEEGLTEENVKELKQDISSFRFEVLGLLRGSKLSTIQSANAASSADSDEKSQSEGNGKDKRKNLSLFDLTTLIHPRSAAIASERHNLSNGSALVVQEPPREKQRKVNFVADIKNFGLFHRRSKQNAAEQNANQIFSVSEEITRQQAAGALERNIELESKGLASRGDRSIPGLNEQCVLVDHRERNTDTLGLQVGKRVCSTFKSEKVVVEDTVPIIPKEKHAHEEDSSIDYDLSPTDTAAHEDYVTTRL
# [8] = target: T2, High affinity choline transporter 1 (Homo sapiens, UniProt Q9GZV3); assay: CHT inhibitors, dose response, cell-based, 5-point CRC, membrane potential dye (AID 504840); type: functional
# T2 sequence (Q9GZV3 whole entry): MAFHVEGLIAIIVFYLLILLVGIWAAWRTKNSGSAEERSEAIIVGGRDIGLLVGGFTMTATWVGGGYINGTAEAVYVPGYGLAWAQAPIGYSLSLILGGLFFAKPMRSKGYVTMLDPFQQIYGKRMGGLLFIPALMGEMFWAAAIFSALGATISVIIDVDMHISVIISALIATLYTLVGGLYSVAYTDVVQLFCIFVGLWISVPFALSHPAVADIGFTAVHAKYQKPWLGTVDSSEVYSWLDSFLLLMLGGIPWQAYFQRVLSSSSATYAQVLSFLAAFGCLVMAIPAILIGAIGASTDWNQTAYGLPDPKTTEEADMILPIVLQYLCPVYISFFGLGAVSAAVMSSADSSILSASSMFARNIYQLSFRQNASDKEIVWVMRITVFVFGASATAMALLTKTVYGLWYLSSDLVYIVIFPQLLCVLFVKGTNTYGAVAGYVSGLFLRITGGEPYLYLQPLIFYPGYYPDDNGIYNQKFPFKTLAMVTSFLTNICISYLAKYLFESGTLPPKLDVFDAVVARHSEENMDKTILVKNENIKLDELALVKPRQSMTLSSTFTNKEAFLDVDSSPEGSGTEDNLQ
# [9] = target: Cytochrome P450 2C19 (Homo sapiens, UniProt P33261); assay: Cytochrome panel assay with activity outcomes. Panel member name: p450-cyp2c19 Compounds with AC50 equal or less than 10 uM are considered active; type: functional
# [10] = target: T3, Cytochrome P450 1A2 (Homo sapiens, UniProt P05177);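 also: PubChem cytochrome P450 panel assay, CYP1A2 panel member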
# T3 sequence (P05177 whole entry): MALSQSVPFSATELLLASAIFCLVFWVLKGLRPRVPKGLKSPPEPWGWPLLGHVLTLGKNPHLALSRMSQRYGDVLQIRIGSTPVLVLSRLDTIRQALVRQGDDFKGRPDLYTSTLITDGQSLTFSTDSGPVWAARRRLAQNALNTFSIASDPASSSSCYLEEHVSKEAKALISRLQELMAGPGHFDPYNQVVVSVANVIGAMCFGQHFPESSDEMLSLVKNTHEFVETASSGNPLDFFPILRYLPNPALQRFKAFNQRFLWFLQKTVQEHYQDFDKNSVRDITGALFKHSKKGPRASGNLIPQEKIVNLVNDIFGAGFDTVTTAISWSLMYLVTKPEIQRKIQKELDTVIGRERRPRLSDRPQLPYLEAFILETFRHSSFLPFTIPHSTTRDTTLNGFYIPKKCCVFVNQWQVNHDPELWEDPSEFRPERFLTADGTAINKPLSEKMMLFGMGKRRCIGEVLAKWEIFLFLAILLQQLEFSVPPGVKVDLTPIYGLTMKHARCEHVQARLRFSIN
# [11] = target: Cytochrome P450 2C9 (Homo sapiens, UniProt P11712)
# [12] = microbe, parasite or virus in culture; type: functional; settings: Mycobacterium tuberculosis
# [13] = target: T4, Heat shock factor protein 1 (Mus musculus, UniProt P38532); assay: HSF1 potentiators in luciferase reporter cells, confirmation, cell-based, NIH3T3, luminescence, dose retest (AID 435004); type: functional;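 also: stress induced by proteasome inhibitor MG132 added 30 min after compound; luciferase reporter driven by HSF1 response element in NIH3T3 cells; actives raise luminescence as potentiators of the MG132 stress response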
# T4 sequence (P38532 whole entry): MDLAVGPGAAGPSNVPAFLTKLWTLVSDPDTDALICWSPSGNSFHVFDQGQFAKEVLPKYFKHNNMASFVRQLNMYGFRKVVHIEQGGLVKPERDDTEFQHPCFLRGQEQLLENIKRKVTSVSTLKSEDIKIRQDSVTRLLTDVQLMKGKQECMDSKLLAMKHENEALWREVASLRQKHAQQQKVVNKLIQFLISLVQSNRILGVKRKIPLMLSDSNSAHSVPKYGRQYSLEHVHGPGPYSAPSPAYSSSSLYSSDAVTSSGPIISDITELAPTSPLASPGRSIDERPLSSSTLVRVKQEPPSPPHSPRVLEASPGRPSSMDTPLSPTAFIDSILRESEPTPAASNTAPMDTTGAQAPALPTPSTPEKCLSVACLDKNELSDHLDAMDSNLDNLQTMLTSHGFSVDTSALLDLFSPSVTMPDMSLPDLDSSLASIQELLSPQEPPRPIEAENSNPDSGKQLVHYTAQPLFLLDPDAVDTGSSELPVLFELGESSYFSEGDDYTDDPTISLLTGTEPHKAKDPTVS
# [14] = target: DNA damage-inducible transcript 3 protein (Mus musculus, UniProt P35639); type: functional, Cricetulus griseus
# [15] = target: T5, Replicative DNA helicase DnaB (Mycobacterium tuberculosis, UniProt P9WMR3); assay: DnaB intein splicing inhibitors, dose response, biochemical, cell-free fluorescence (AID 449749); type: functional
# T5 sequence (P9WMR3 whole entry): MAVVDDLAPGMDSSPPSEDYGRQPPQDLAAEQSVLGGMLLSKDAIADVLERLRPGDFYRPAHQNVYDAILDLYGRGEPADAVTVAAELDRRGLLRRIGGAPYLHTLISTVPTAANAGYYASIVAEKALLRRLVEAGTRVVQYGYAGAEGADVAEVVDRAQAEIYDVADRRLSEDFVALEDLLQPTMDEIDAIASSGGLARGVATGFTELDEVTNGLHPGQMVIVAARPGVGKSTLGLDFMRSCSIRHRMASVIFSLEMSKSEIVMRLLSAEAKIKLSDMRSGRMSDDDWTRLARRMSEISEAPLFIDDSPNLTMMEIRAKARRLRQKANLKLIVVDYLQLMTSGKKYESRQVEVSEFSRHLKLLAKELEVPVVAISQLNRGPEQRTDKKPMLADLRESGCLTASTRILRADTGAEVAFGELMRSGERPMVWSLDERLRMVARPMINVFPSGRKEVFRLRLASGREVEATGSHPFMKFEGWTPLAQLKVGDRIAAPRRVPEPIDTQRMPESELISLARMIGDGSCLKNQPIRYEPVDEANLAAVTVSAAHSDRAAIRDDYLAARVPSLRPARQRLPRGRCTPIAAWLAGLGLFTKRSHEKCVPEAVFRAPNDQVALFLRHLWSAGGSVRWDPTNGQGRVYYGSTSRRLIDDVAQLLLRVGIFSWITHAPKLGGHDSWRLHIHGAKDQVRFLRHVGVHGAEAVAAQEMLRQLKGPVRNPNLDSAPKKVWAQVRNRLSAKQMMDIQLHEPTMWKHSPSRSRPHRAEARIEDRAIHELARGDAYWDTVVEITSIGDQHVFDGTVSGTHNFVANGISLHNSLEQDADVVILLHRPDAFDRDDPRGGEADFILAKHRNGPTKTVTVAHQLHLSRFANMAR
# [16] = target: T6, Protein RecA (Mycobacterium tuberculosis, UniProt P9WHJ3); assay: Fluorescence Cell-Free Homogeneous Dose Retest to Identify Inhibitors of RecA-Intein Splicing Activity. [Related pubchem assays (depositor defined):AID2097, AID2223, AID489010, AID492950]; type: functional
# T6 sequence (P9WHJ3 whole entry): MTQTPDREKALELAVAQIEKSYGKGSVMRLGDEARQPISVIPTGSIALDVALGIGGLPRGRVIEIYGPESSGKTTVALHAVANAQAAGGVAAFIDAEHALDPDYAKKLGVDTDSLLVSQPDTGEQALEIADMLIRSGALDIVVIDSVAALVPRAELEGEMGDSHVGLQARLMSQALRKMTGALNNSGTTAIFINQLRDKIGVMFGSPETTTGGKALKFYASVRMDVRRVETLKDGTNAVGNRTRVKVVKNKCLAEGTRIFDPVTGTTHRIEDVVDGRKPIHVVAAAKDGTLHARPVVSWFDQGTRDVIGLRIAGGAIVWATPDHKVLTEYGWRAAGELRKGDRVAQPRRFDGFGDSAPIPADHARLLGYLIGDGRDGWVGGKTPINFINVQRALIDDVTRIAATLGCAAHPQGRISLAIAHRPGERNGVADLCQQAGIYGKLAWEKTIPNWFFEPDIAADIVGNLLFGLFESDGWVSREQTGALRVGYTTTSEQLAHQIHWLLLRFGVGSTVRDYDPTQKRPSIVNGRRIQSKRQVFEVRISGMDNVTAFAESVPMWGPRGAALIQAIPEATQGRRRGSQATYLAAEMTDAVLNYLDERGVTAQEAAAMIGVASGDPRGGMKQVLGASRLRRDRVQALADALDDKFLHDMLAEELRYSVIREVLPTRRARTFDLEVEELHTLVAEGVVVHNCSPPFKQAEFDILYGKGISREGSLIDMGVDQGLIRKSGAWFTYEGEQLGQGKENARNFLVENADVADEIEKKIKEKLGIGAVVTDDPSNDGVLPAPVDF
# Cytochrome P450 2C19, sequence (P33261 whole entry): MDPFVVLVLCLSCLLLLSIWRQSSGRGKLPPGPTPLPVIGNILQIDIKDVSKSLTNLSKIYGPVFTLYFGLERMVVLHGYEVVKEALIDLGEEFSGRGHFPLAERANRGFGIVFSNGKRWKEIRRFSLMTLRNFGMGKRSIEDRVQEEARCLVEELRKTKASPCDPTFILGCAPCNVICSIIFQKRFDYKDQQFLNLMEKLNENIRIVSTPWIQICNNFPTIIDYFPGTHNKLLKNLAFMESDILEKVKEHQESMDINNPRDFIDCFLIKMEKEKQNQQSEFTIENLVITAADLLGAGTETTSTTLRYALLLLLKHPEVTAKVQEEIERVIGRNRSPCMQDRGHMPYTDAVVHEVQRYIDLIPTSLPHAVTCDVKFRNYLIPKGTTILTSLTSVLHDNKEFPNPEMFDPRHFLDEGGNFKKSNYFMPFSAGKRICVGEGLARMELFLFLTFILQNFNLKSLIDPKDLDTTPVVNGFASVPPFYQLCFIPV
# Cytochrome P450 2C9, sequence (P11712 whole entry): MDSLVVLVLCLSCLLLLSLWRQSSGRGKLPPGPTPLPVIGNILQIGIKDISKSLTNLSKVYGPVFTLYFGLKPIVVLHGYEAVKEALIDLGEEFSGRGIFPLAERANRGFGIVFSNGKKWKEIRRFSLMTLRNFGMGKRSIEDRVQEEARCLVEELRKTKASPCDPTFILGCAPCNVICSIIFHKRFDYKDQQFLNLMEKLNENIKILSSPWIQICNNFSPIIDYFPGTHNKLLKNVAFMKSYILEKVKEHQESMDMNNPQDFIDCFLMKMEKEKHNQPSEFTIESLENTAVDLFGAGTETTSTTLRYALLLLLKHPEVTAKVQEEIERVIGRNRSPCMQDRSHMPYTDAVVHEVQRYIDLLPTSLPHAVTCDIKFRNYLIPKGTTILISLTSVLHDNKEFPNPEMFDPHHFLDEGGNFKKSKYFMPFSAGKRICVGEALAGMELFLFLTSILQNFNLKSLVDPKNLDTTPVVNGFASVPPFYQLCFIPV
# Cytochrome P450 3A4, sequence (P08684 whole entry): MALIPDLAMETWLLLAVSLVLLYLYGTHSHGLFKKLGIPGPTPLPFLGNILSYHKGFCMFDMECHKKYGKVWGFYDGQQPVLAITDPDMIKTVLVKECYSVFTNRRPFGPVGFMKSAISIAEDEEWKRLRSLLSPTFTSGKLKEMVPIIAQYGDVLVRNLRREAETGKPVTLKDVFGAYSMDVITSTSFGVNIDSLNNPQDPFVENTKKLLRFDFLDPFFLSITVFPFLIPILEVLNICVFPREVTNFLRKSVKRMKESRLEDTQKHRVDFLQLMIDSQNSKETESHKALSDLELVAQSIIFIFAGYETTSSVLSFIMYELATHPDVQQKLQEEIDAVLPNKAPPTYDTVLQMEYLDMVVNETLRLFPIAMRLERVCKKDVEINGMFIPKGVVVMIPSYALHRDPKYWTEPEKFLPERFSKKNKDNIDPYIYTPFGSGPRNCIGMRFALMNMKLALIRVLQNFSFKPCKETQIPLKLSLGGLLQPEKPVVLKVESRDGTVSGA
# DNA damage-inducible transcript 3 protein, sequence (P35639 whole entry): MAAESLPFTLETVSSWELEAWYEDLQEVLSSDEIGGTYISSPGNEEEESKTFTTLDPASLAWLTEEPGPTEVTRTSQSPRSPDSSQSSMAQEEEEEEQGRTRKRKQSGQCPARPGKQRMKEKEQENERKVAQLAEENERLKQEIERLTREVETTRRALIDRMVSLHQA
structure (smiles),measurement,setting,value
CC(C)(C)c1ccc(OCc2ccc(C(=O)N/N=C/c3ccc(O)c(O)c3)cc2)cc1,EC50,[1],2.67 µM (inconclusive)
same,IC50,[2],3.14 µM (active)
same,IC50,[3],1.97 µM (active)
same,EC50,[4],> 38 µM (not active)
same,AC50,[5],5.45 µM (active)
Cc1ccccc1C(=O)N1CCN(c2ccc([N+](=O)[O-])c(NCc3ccco3)c2)CC1,AC50,[6],inconclusive
Cn1c(-c2ccccc2)cnc1NCc1ccccc1,EC50,[7],5.31 µM (active)
same,IC50,[8],11.5 µM (active)
COCCCN1CCN(c2nnc3n2-c2sc(Br)cc2C(c2ccccc2Cl)=NC3)CC1.CS(=O)(=O)O,AC50,[9]; read-out: AC50,7.08 µM (inconclusive)
same,AC50,[6],inconclusive
Fc1ccc(C(c2ccc(F)cc2)N2CCN(C/C=C\c3ccccc3)CC2)cc1,AC50,[9],inactive
same,AC50,[10],15.8 µM (inconclusive) (2×) and 25.1 µM (inconclusive)
same,AC50,[11],39.8 µM (inconclusive) and 20 µM (inconclusive) and 15.8 µM (inconclusive)
same,AC50,[6],inactive; also recorded: inconclusive
O=[N+]([O-])c1ccccc1N/N=C/c1cccc(O)c1O,IC50,[2],2.74 µM (active)
same,IC50,[3],3.75 µM (active)
CC(C)c1nnc(NC(=O)CCC(=O)N2CCN(c3ccccn3)CC2)s1,AC50,[9]; read-out: AC50,28.2 µM (inconclusive)
same,AC50,[11],7.08 µM (inconclusive)
same,AC50,[6],inconclusive
O=C(CCl)N1CCN2C(=O)c3ccccc3C12c1ccc(Cl)cc1 (configuration not stated),CC50,[12],8.94 µM (active)
same,EC50,[13],15 µM (active)
same,Absolute IC50 (CHOP),[14],10 µM
same,AC50,[15],3.96 µM (active)
same,EC50,[16],1.08 µM (active)
c1ccc(CN2CCC3(CCc4ccccc43)CC2)cc1,AC50,[10],31.6 µM (inconclusive)
same,AC50,[11],39.8 µM (inconclusive)
same,AC50,[6],inconclusive

# From ChEMBL document CHEMBL1201862, “PubChem BioAssay data set” (2004)
